Results as given in ChEMBL document CHEMBL4312017, “Synthesis and discovery of new compounds bearing coumarin scaffold for the treatment of pulmonary fibrosis” (Eur J Med Chem, 2020).
Calls of active or inactive are those of the source. The calls are words filed in the database; no cut-off is given here.

How the values were obtained:
[1] = test system: NIH3T3; test: Inhibition of TGF-beta-induced […] migration in mouse NIH/3T3 cells at 1 uM incubated for 24 hrs by Transwell assay; type: functional, cell-based
[2] = test system: Mus musculus; test: Antifibrotic activity against BLM-induced C57BL/6 mouse pulmonary fibrosis model assessed as decrease in bronchiolar epithelial cell shedding at 50 mg/kg, po administered for 28 days and measured on day 14 and 28 by HE staining based fluorescence microscopy; type: functional, organism-based
[3] = test system: Mus musculus; test: Antifibrotic activity against BLM-induced C57BL/6 mouse pulmonary fibrosis model assessed as decrease in bronchial epithelial vacuolar degeneration at 100 mg/kg, po administered for 28 days and measured on day 14 and 28 by HE staining based fluorescence microscopy; type: functional, organism-based
[4] = test system: Mus musculus; test: Antifibrotic activity against BLM-induced C57BL/6 mouse pulmonary fibrosis model assessed as decrease in bronchioles inflammatory cell infiltration at 50 mg/kg, po administered for 28 days and measured on day 14 and 28 by HE staining based fluorescence microscopy; type: functional, organism-based
[5] = AUC (0 to t) in Sprague-Dawley rat at 5 mg/kg, iv measured upto 24 hrs; type: ADME, organism-based; set-up: dose 5 mg/kg, time < 24 hr, route intravenous; conditions: in vivo
[6] = test system: Mus musculus; test: Antifibrotic activity against C57BL/6 mouse pulmonary fibrosis model assessed as reduction in bleomycin-iduced hydroxyproline level at 100 mg/kg, po administered for 28 days and measured on day 14 and 28 by spectrophotometry; type: functional, organism-based
[7] = Cytotoxicity against rat NRK-49F cells assessed as cell viability at 10 uM incubated for 72 hrs by MTT assay; type: cell-based; conditions: read-out: Activity
[8] = Toxicity in BLM-induced C57BL/6 mouse pulmonary fibrosis model assessed as survival rate at 50 and 100 mg/kg, po observed for 28 days; type: organism-based; conditions: in vivo
[9] = Tmax in Sprague-Dawley rat 10 mg/kg, po measured upto 24 hrs; type: ADME, organism-based; conditions: in vivo
[10] = test system: Mus musculus; test: Antifibrotic activity against BLM-induced C57BL/6 mouse pulmonary fibrosis model assessed as reduction in neutrophils in BALF at 50 mg/kg, po administered for 28 days and measured on day 28; type: functional, organism-based
[11] = test system: Mus musculus; test: Antifibrotic activity against BLM-induced C57BL/6 mouse pulmonary fibrosis model assessed as decrease in bronchioles inflammatory cell infiltration at 100 mg/kg, po administered for 28 days and measured on day 14 and 28 by HE staining based fluorescence microscopy; type: functional, organism-based
[12] = test system: Mus musculus; test: Antifibrotic activity against BLM-induced C57BL/6 mouse pulmonary fibrosis model assessed as decrease in bronchial epithelial vacuolar degeneration at 50 mg/kg, po administered for 28 days and measured on day 14 and 28 by HE staining based fluorescence microscopy; type: functional, organism-based
[13] = Tmax in Sprague-Dawley rat at 5 mg/kg, iv measured upto 24 hrs; type: ADME, organism-based; conditions: in vivo
[14] = AUC (0 to t) in Sprague-Dawley rat 10 mg/kg, po measured upto 24 hrs; type: ADME, organism-based; set-up: time < 24 hr, dose 10 mg/kg, route oral; conditions: in vivo
[15] = test system: Mus musculus; test: Antifibrotic activity against BLM-induced C57BL/6 mouse pulmonary fibrosis model assessed as increase in time for reduction of alveoli at 100 mg/kg, po administered for 28 days and measured on day 14 and 28 by HE staining based fluorescence microscopy; type: functional, organism-based
[16] = Oral bioavailability in Sprague-Dawley rat 10 mg/kg measured upto 24 hrs; type: ADME, organism-based; conditions: in vivo
[17] = test system: Mus musculus; test: Antifibrotic activity against BLM-induced C57BL/6 mouse pulmonary fibrosis model assessed as reduction in total white blood cells in BALF at 50 mg/kg, po administered for 28 days and measured on day 28; type: functional, organism-based
[18] = test system: NRK-49F; test: Inhibition of TGF-beta-induced collagen accumulation in rat NRK-49F cells incubated for 2 days by PSR staining based microscopic analysis; type: functional, cell-based
[19] = test system: Mus musculus; test: Antifibrotic activity against BLM-induced C57BL/6 mouse pulmonary fibrosis model assessed as increase in time for reduction of alveoli at 50 mg/kg, po administered for 28 days and measured on day 14 and 28 by HE staining based fluorescence microscopy; type: functional, organism-based
[20] = test system: Mus musculus; test: Antifibrotic activity against BLM-induced C57BL/6 mouse pulmonary fibrosis model assessed as reduction in total white blood cells in BALF at 100 mg/kg, po administered for 28 days and measured on day 28; type: functional, organism-based
[21] = Cmax in Sprague-Dawley rat at 10 mg/kg, po measured upto 24 hrs; type: ADME, organism-based; set-up: dose 10 mg/kg, route oral; conditions: in vivo
[22] = Half life in Sprague-Dawley rat 10 mg/kg, po measured upto 24 hrs; type: ADME, organism-based; conditions: in vivo
[23] = target: T1, Transforming growth factor beta-1 proprotein/Smad3 (Rattus norvegicus) (UniProt P84025+P17246); test: Inhibition of TGFbeta/Smad3 pathway in rat NRK-49F cells assessed as reduction in TGF-beta1-induced COL1A1 expression in at 20 and 40 uM incubated for 24 hrs by Western blot analysis; type: cell-based
[24] = test system: Mus musculus; test: Antifibrotic activity against BLM-induced C57BL/6 mouse pulmonary fibrosis model assessed as decrease in bronchiolar epithelial cell shedding at 100 mg/kg, po administered for 28 days and measured on day 14 and 28 by HE staining based fluorescence microscopy; type: functional, organism-based
[25] = Half life in Sprague-Dawley rat at 5 mg/kg, iv measured upto 24 hrs; type: ADME, organism-based; conditions: in vivo
[26] = test system: Mus musculus; test: Antifibrotic activity against BLM-induced C57BL/6 mouse pulmonary fibrosis model assessed as decrease in destruction alveolar structure at 50 mg/kg, po administered for 28 days and measured on day 14 and 28 by HE staining based fluorescence microscopy; type: functional, organism-based
[27] = test system: Mus musculus; test: Antifibrotic activity against BLM-induced C57BL/6 mouse pulmonary fibrosis model assessed as decrease in perivascular inflammatory cell infiltration at 100 mg/kg, po administered for 28 days and measured on day 14 and 28 by HE staining based fluorescence microscopy; type: functional, organism-based
[28] = test system: Mus musculus; test: Antifibrotic activity against C57BL/6 mouse pulmonary fibrosis model assessed as reduction in bleomycin-iduced hydroxyproline level at 50 mg/kg, po administered for 28 days and measured on day 14 and 28 by spectrophotometry; type: functional, organism-based
[29] = Clearance in Sprague-Dawley rat 10 mg/kg, po measured upto 24 hrs; type: ADME, organism-based; conditions: in vivo
[30] = test system: Mus musculus; test: Antifibrotic activity against BLM-induced C57BL/6 mouse pulmonary fibrosis model assessed as decrease in destruction alveolar structure at 100 mg/kg, po administered for 28 days and measured on day 14 and 28 by HE staining based fluorescence microscopy; type: functional, organism-based
[31] = test system: Mus musculus; test: Antifibrotic activity against BLM-induced C57BL/6 mouse pulmonary fibrosis model assessed as decrease in perivascular inflammatory cell infiltration at 50 mg/kg, po administered for 28 days and measured on day 14 and 28 by HE staining based fluorescence microscopy; type: functional, organism-based
[32] = Cmax in Sprague-Dawley rat at 5 mg/kg, iv measured upto 24 hrs; type: ADME, organism-based; set-up: dose 5 mg/kg, route intravenous; conditions: in vivo
[33] = test system: Mus musculus; test: Antifibrotic activity against BLM-induced C57BL/6 mouse pulmonary fibrosis model assessed as reduction in lymphocytes in BALF at 100 mg/kg, po administered for 28 days and measured on day 28; type: functional, organism-based
[34] = test system: NRK-49F; test: Inhibition of TGF-beta-induced collagen accumulation in rat NRK-49F cells at 10 uM incubated for 2 days by PSR staining based microscopic analysis relative to control; type: functional; conditions: 48 h
[35] = test system: Mus musculus; test: Antifibrotic activity against BLM-induced C57BL/6 mouse pulmonary fibrosis model assessed as reduction in neutrophils in BALF at 100 mg/kg, po administered for 28 days and measured on day 28; type: functional, organism-based
[36] = target: T1, Transforming growth factor beta-1 proprotein/Smad3 (Rattus norvegicus); test: Inhibition of TGFbeta/Smad3 pathway in rat NRK-49F cells assessed as reduction in TGF-beta1-induced Smad3 phosphorylation at 20 and 40 uM incubated for 24 hrs by Western blot analysis; type: cell-based
[37] = target: T1, Transforming growth factor beta-1 proprotein/Smad3 (Rattus norvegicus); test: Inhibition of TGFbeta/Smad3 pathway in rat NRK-49F cells assessed as reduction in TGF-beta1-induced alpha-SMA expression in at 20 and 40 uM incubated for 24 hrs by Western blot analysis; type: cell-based
[38] = test system: Mus musculus; test: Antifibrotic activity against BLM-induced C57BL/6 mouse pulmonary fibrosis model assessed as reduction in lymphocytes in BALF at 50 mg/kg, po administered for 28 days and measured on day 28; type: functional, organism-based

T1 sequence (P17246 whole entry, looked up): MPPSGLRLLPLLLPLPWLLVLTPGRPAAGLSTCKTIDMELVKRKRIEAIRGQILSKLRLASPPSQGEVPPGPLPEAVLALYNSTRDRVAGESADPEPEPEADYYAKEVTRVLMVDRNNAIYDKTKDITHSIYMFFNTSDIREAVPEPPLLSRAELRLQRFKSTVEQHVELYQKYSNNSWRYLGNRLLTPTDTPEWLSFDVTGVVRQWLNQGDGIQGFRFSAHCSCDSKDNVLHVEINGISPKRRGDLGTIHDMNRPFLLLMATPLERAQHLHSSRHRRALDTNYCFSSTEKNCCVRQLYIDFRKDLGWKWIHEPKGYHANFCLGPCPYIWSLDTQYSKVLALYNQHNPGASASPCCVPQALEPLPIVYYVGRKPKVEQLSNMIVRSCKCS
T1 sequence (P84025 whole entry, looked up): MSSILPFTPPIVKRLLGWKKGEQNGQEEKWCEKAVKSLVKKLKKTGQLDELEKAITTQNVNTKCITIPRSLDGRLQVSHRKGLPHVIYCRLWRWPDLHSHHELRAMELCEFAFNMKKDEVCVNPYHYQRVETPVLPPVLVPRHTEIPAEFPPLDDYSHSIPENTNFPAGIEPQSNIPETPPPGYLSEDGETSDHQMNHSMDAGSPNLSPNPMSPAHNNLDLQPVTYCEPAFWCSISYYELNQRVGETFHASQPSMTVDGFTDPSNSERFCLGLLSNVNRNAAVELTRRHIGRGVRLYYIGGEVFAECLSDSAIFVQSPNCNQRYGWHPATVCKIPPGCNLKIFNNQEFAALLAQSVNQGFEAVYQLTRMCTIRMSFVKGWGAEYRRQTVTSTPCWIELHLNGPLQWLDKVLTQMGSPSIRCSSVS

O=C(CN1CCCCC1)Nc1ccc(Oc2cc(=O)oc3ccccc23)cc1
inhibition [1]: Active
Activity [2]: Active
Activity [3]: Active
Activity [4]: Active
AUC(0-t) at 24 h [5]: 1390 ng·h/mL
Activity [6]: Active
viability at 72 h, 10 µM [7]: 93.6%
survival at 672 h [8]: 90%
Tmax [9]: 0.63 h
Activity [10]: Active
Activity [11]: Active
Activity [12]: Active
Tmax [13]: 2.68 h
AUC(0-t) at 24 h [14]: 1100 ng·h/mL
Activity [15]: Active
bioavailability [16]: 39.9%
Activity [17]: Active
inhibition [18]: Dose-dependent effect
IC50 ([18]; 48 h): 4.31 µM
Activity [19]: Active
Activity [20]: Active
Cmax [21]: 74.7 ng/mL
half-life [22]: 13.1 h
inhibition [23]: Active
Activity [24]: Active
half-life [25]: 7.42 h
Activity [26]: Active
Activity [27]: Active
Activity [28]: inactive
CL/F [29]: 108 mL/min/kg
Activity [30]: Active
Activity [31]: Active
Cmax [32]: 316 ng/mL
Activity [33]: Active
inhibition at 10 µM [34]: 85.1%
Activity [35]: Active
inhibition [36]: Active
inhibition [37]: Active
Activity [38]: Active
